The source of these data is US7163941B2, “Pyrido[2,3-d]pyrimidin-7-carboxylic acid derivatives, their manufacture and use as pharmaceutical agents” (Hoffmann-La Roche Inc., priority 2003, dated 2007).

Test [1] concerns the target T1, Lck (p56^lck, active) (Homo sapiens, UniProt P06239).
T1 construct: purchased Upstate (UBI)
Kind of test: SRC-Inhibitor-Assay (time-resolved fluorescence), Lck enzyme. Format: biochemical. Particulars: ATP 5 μM, peptide 10 μM, enzyme 2.5 U/ml, pre-incubation 15 min at 15° C. Here is the method:
(§1) The activity of the compounds according to this invention as inhibitors for the src-family tyrosine kinases was shown by using the following assay.
(§2) SRC-Inhibitor-Assay Parameters:
(§3) • Reaction mixture: • ATP 5 μM • Peptide (R+Ja133-Ro): 10 μM • Ja133-Ro 196 nM • Ro 9.8 μM • PT66 230 ng/ml • Assay buffer: 4 mM MgCl2 • 2 mM TCEP • 50 mM HEPES • 0,1% Tween 20 • pH 7.3 • Enzyme: 2.5 U/ml • Inhibitor: max. 25 μM • min. 0.42 nM Material: • Eu-labelled phosphotyrosine antibody: -for Lck Cisbio Mab PT66-K, • for Src EG&G Wallac PT66 Eu-W1024 (all commercially available). • Peptides: Ro: NH2-A-E-E-E-I-Y-G-E-F-E-A-K-K-K-K-CONH2 (SEQ ID NO: 1), and • Ja133-Ro: Ja133-G-Aminocaprylic acid-A-E-E-E-I-Y-G-E-F-E-A-K-K-K-K-CONH2 (SEQ ID NO: 2), wherein Ja133 is LightCycler-Red 640-N-hydroxy succinimide ester; • whereby both peptides were synthesized by an optimized solid phase peptide synthesis protocol (Merrifield, Fed. Proc. Fed. Amer. Soc. Exp. Biol. 21 (1962) 412) on a Zinsser SMP350 peptide synthesizer. Shortly, the peptide was assembled on 160 mg (22.8 μmol scale) of a Rink-Linker modified polystyrene solid phase by repeatedly conjugating an twenty fold excess of aminoacids each protected by temporary piperidine labile Fmoc- and permanent acid labile tert-Bu-, BOC- and Otert-Bu-groups depending on the side chain function. The substrate sequence AEEEIYGEFEAKKKK (SEQ ID NO: 1) was N-terminal additionally mounted with the spacer amino acids Aminocaprylic acid and Glycin. After cleavage of the N-terminal temporary protecting group the still attached and protected peptide was labeled with a 1.5 fold amount of LightCycler-Red 640-N-hydroxy succinimide ester (purchased by Roche Diagnostics GmbH) and triethylamine. After 3 hrs. the resin was washed with Dimethylformamide and Isopropanol until the eluates of the blue resin got colo-rless. […] The substrate was finally isolated by a preparative reverse phase HPLC purification. The purification yielded 12.2 mg RP-HPLC single peak pure blue material (lyophilisate). The identity was proven by MALDI mass spectroscopy [2720.0]. • Enzymes: Upstate Lck (p56^lck, active), Upstate Src (p60^c-src, partially purified) were purchased from UBI. • Time-resolved Fluorescence Assay: Reader: Perkin Elmer, Wallac Viktor 1420-040 multilabel counter; Liquid handling system: Beckman Coulter, Biomek 2000. ATP, Tween 20, HEPES were purchased from Roche Molecular Biochemicals, MgCl2 and MnCl2 were purchased from Merck Eurolab, TCEP was purchased from Pierce, 384 Well low volume fluorescence plates was purchased from Falcon. Assay Description:
(§4) At first the enzyme is pre-incubated for 15 min. at 15° C. in aqueous solution with corresponding amounts of inhibitors according to this invention. Then the phosphorylation reaction is started by adding a reaction mixture, containing ATP, Peptide and PT66, and subsequent shaking. The proceeding of this reaction is immediately monitored using time resolved fluorescence spectroscopy in a suitable well plate reader.
(§5) The IC50-values can be obtained from the reaction rates by using a non-linear curve fit (Excelfit).

For test [2], the target named is T2, Src (p60^c-src, partially purified) (Homo sapiens, UniProt P12931).
T2 construct: purchased Upstate (UBI)
Description: SRC-Inhibitor-Assay (time-resolved fluorescence), Src enzyme. Type of test: biochemical. The settings on record: ATP 5 μM, peptide 10 μM, enzyme 2.5 U/ml, pre-incubation 15 min at 15° C. Here is the method: as §1, §2, §3, §4, §5

T1 sequence (P06239 whole entry, species assumed): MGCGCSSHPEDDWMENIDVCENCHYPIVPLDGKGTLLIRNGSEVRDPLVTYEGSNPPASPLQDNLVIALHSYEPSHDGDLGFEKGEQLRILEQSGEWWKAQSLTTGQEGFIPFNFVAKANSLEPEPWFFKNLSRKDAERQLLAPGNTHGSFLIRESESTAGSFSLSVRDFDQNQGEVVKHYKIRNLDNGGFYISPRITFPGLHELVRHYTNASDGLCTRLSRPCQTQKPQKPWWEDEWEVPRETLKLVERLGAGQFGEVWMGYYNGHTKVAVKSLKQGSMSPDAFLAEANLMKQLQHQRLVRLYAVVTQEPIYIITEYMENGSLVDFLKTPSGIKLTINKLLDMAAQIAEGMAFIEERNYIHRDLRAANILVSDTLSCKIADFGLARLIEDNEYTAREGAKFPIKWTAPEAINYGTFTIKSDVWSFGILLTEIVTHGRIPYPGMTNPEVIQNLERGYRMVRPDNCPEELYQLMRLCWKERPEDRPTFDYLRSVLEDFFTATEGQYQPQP
T2 sequence (P12931 whole entry, species assumed): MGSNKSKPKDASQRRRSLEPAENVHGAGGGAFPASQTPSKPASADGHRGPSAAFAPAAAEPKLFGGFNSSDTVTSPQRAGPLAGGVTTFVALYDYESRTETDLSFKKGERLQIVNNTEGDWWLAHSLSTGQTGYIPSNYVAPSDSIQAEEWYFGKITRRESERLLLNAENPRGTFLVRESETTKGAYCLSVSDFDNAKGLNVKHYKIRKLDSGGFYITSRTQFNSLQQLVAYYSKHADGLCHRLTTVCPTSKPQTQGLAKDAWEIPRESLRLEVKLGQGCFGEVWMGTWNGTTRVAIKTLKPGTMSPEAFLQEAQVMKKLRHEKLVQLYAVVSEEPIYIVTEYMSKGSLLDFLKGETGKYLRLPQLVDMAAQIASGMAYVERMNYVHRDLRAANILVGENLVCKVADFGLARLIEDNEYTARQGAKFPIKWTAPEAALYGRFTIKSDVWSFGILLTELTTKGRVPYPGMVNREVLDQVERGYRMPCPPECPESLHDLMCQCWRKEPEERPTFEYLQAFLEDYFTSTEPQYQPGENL

On to `O=C(NC1CCNCC1)c1nc2nc(Nc3ccc(F)cc3)ncc2cc1-c1ccccc1Br` [Example 3-11, 6-(2-Bromo-phenyl)-2-(4-fluoro-phenylamino)-pyrido[2,3-d]pyrimidine-7-carboxylic acid piperidin-4-ylamide], for which the IC50 in test [1] was determined as 774 nM; in test [2], 66.1 nM.

In the case of `CN(C)CCNC(=O)c1nc2nc(Nc3ccc(F)cc3)ncc2cc1-c1ccccc1Br` [Example 3-12, 6-(2-Bromo-phenyl)-2-(4-fluoro-phenylamino)-pyrido[2,3-d]pyrimidine-7-carboxylic acid (2-dimethylamino-ethyl)-amide], the figures for the IC50 in test [1] and in test [2] were 350 nM and 34.1 nM, respectively.

For the compound `COCCNC(=O)c1nc2nc(Nc3ccc(F)cc3)ncc2cc1-c1ccccc1Br` [Example 3-13, 6-(2-Bromo-phenyl)-2-(4-fluoro-phenylamino)-pyrido[2,3-d]pyrimidine-7-carboxylic acid (2-methoxy-ethyl)-amide], the values for the concentration for half-maximal inhibition (IC50) in test [1] and in test [2] were 360 nM and 114 nM, respectively.

On to `CN(C)CCCNC(=O)c1nc2nc(Nc3ccc(F)cc3)ncc2cc1-c1ccccc1Br` [Example 3-14, 6-(2-Bromo-phenyl)-2-(4-fluoro-phenylamino)-pyrido[2,3-d]pyrimidine-7-carboxylic acid (3-dimethylamino-propyl)-amide], for which the IC50 in test [1] was determined as 233 nM; in test [2] it was 21.7 nM.

In the case of `CN(C)CC(C)(C)CNC(=O)c1nc2nc(Nc3ccc(F)cc3)ncc2cc1-c1ccccc1Br` [Example 3-15, 6-(2-Bromo-phenyl)-2-(4-fluoro-phenylamino)-pyrido[2,3-d]pyrimidine-7-carboxylic acid (3-dimethylamino-2,2-dimethyl-propyl)-amide], the values for the IC50 in test [1] and in test [2] were 218 nM and 41.5 nM, respectively.

For the compound `CC(=O)NCCNC(=O)c1nc2nc(Nc3ccc(F)cc3)ncc2cc1-c1ccccc1Br` [Example 3-16, 6-(2-Bromo-phenyl)-2-(4-fluoro-phenylamino)-pyrido[2,3-d]pyrimidine-7-carboxylic acid (2-acetylamino-ethyl)-amide], the half-maximal inhibitory concentration (IC50) in test [1] worked out at 189 nM; in test [2], 81.4 nM.

Regarding `CNCCNC(=O)c1nc2nc(Nc3ccc(F)cc3)ncc2cc1-c1ccccc1Br` [Example 3-17, 6-(2-Bromo-phenyl)-2-(4-fluoro-phenylamino)-pyrido[2,3-d]pyrimidine-7-carboxylic acid (2-methylamino-ethyl)-amide], the values for the IC50 in test [1] and in test [2] were 39.8 nM and 6.2 nM, respectively.

Consider `NC(=O)NNC(=O)c1nc2nc(Nc3ccc(F)cc3)ncc2cc1-c1ccccc1Br` [Example 3-18, 1-[6-(2-Bromo-phenyl)-2-(4-fluoro-phenylamino)-pyrido[2,3-d]pyrimidine-7-carbonyl]semicarbazide], for which the results for the IC50 in test [1] and in test [2] were 68.4 nM and 24.8 nM, respectively.

Regarding `CN(C)CCN(C)C(=O)c1nc2nc(Nc3ccc(F)cc3)ncc2cc1-c1ccccc1Br` [Example 3-19, 6-(2-Bromo-phenyl)-2-(4-fluoro-phenylamino)-pyrido[2,3-d]pyrimidine-7-carboxylic acid (2-dimethylamino-ethyl)-methyl-amide], the IC50 in test [1] worked out at 357 nM; in test [2], 200 nM.

In the case of `NC(=O)CNC(=O)c1nc2nc(Nc3ccc(F)cc3)ncc2cc1-c1ccccc1Br` [Example 3-20, 6-(2-Bromo-phenyl)-2-(4-fluoro-phenylamino)-pyrido[2,3-d]pyrimidine-7-carboxylic acid carbamoylmethyl-amide], the concentration for half-maximal inhibition (IC50) worked out at 289 nM in test [1] and 62.4 nM in test [2].

Regarding `CN1CCC(NC(=O)c2nc3nc(Nc4ccc(F)cc4)ncc3cc2-c2ccccc2Br)CC1` [Example 3-21, 6-(2-Bromo-phenyl)-2-(4-fluoro-phenylamino)-pyrido[2,3-d]pyrimidine-7-carboxylic acid (1-methyl-piperidin-4-yl)-amide], the results for the IC50 in test [1] and in test [2] were 638 nM and 96.2 nM, respectively.

In the case of `O=C(NCCN1CCOCC1)c1nc2nc(Nc3ccc(F)cc3)ncc2cc1-c1ccccc1Br` [Example 3-22, 6-(2-Bromo-phenyl)-2-(4-fluoro-phenylamino)-pyrido[2,3-d]pyrimidine-7-carboxylic acid (2-morpholin-4-yl-ethyl)-amide], the IC50 was determined as 662 nM in test [1] and 158 nM in test [2].

Regarding `CC(CN(C)C)NC(=O)c1nc2nc(Nc3ccc(F)cc3)ncc2cc1-c1ccccc1Br` (centres unmarked) [Example 3-23, 6-(2-Bromo-phenyl)-2-(4-fluoro-phenylamino)-pyrido[2,3-d]pyrimidine-7-carboxylic acid (2-dimethylamino-1-methyl-ethyl)-amide], the IC50 was determined as 573 nM in test [1] and 195 nM in test [2].

For `CNC(=O)CNC(=O)c1nc2nc(Nc3ccc(F)cc3)ncc2cc1-c1ccccc1Br` [Example 3-24, 6-(2-Bromo-phenyl)-2-(4-fluoro-phenylamino)-pyrido[2,3-d]pyrimidine-7-carboxylic acid methylcarbamoylmethyl-amide], the IC50 in test [1] amounted to 206 nM; in test [2], 130 nM.

Turning to `O=C(NCCN1CCNC1=O)c1nc2nc(Nc3ccc(F)cc3)ncc2cc1-c1ccccc1Br` [Example 3-25, 6-(2-Bromo-phenyl)-2-(4-fluoro-phenylamino)-pyrido[2,3-d]pyrimidine-7-carboxylic acid[2-(2-oxo-imidazolidin-1-yl)-ethyl]-amide], the IC50 was 370 nM in test [1] and 157 nM in test [2].

On to `O=C(NCCCN1CCCC1=O)c1nc2nc(Nc3ccc(F)cc3)ncc2cc1-c1ccccc1Br` [Example 3-26, 6-(2-Bromo-phenyl)-2-(4-fluoro-phenylamino)-pyrido[2,3-d]pyrimidine-7-carboxylic acid [3-(2-oxo-pyrrolidin-1-yl)-propyl]-amide], for which the IC50 in test [1] came to 275 nM; in test [2], 197 nM.

Turning to `CC(CNC(=O)c1nc2nc(Nc3ccc(F)cc3)ncc2cc1-c1ccccc1Br)N(C)C` (centres unmarked) [Example 3-27, 6-(2-Bromo-phenyl)-2-(4-fluoro-phenylamino)-pyrido[2,3-d]pyrimidine-7-carboxylic acid (2-dimethylamino-propyl)-amide], the IC50 in test [1] was 129 nM; in test [2], 23.9 nM.

Turning to `O=C(N[C@H]1CCNC1)c1nc2nc(Nc3ccc(F)cc3)ncc2cc1-c1ccccc1Br` [Example 3-28, (S)-6-(2-Bromo-phenyl)-2-(4-fluoro-phenylamino)-pyrido[2,3-d]pyrimidine-7-carboxylic acid pyrrolidin-3-ylamide], the IC50 in test [1] turned out to be 62.7 nM; in test [2] it was 19.3 nM.

In the case of `O=C(N[C@@H]1CCNC1)c1nc2nc(Nc3ccc(F)cc3)ncc2cc1-c1ccccc1Br` [Example 3-29, (R)-6-(2-Bromo-phenyl)-2-(4-fluoro-phenylamino)-pyrido[2,3-d]pyrimidine-7-carboxylic acid pyrrolidin-3-ylamide], the IC50 in test [1] stood at 429 nM; in test [2] it was 103 nM.

In the case of `CN(C)C(=O)CNC(=O)c1nc2nc(Nc3ccc(F)cc3)ncc2cc1-c1ccccc1Br` [Example 3-30, 6-(2-Bromo-phenyl)-2-(4-fluoro-phenylamino)-pyrido[2,3-d]pyrimidine-7-carboxylic acid dimethylcarbamoylmethyl-amide], the IC50 in test [1] amounted to 151 nM; in test [2], 247 nM.

`CNCCCNC(=O)c1nc2nc(Nc3ccc(F)cc3)ncc2cc1-c1ccccc1Br` [Example 3-31, 6-(2-Bromo-phenyl)-2-(4-fluoro-phenylamino)-pyrido[2,3-d]pyrimidine-7-carboxylic acid (3-methylamino-propyl)-amide]: the results for the IC50 in test [1] and in test [2] were 100 nM and 42.8 nM, respectively.

On to `O=C(NCCCN1CCOCC1)c1nc2nc(Nc3ccc(F)cc3)ncc2cc1-c1ccccc1Br` [Example 3-32, 6-(2-Bromo-phenyl)-2-(4-fluoro-phenylamino)-pyrido[2,3-d]pyrimidine-7-carboxylic acid (3-morpholin-4-yl-propyl)-amide], for which the values for the IC50 in test [1] and in test [2] were 195 nM and 117 nM, respectively.
